Experimental data taken from US9604975B2, “Indolyl-pyridone derivatives having checkpoint kinase 1 inhibitory activity” (Vernalis (R&D) Ltd., priority 2009, dated 2017).

Biological target: T1, CHK1 (Homo sapiens, UniProt O14757)
T1 construct: His; purchased Invitrogen
T1 sequence (O14757 1-476): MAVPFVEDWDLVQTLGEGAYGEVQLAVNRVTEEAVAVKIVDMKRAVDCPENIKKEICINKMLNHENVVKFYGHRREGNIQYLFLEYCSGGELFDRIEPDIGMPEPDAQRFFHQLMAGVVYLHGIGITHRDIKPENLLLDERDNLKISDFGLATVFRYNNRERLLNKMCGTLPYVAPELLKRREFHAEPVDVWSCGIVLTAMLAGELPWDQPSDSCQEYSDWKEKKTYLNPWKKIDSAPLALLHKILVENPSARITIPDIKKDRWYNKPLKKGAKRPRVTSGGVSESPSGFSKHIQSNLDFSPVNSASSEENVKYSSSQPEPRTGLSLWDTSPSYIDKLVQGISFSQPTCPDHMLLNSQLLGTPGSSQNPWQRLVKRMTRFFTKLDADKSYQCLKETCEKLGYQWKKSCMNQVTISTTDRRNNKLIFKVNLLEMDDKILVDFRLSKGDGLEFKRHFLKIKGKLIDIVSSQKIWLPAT
Assay: CHK1 Enzyme Assay (phosphorylation of Chktide peptide, 33P-ATP filter assay)
Assay type: biochemical
Details: 12.5 nM His-CHK1, 0.01 mM ATP, 40 minutes at 30° C.; read-out: CHK1 Enzyme Activity (IC50 range)
Protocol: Assays for the CHK1 kinase activity were carried out by monitoring the phosphorylation of a synthetic peptide Chktide with the amino acid sequence, […]. The assay mixture containing the inhibitor and CHK1 enzyme was mixed together in a microtiter plate in a final volume of 50 μl and incubated for 40 minutes at 30° C.
The assay mixture contained 0.01 mM unlabeled ATP, 0.5 μCi ^33P-γ-ATP, 14.8 μM Chktide, 0.1 mg/mL BSA, 50 mM Hepes-NaOH pH 7.5 and 12.5 nM His-CHK1 (Invitrogen) enzyme. The reaction was stopped by adding 50 μL of 50 mM phosphoric acid. 90 μL of the mixture was transferred to a pre-wetted 96-well multi-screen MAPHNOB filtration plate (Millipore) and filtered on a vacuum manifold. The filter plate was washed with 3 successive additions of 200 μl 50 mM phosphoric acid and then with 100 μL methanol. The filtration plate was dried for 10 min at 65° C., scintillant added and phosphorylated peptide quantified in a scintillation counter (Trilux, PerkinElmer).

Row | Structure (SMILES) | IC50
1 | Cc1ccc(Cn2cc(C(=O)Nc3c[nH]c(=O)c(-c4cc5cc(CN6CCC(F)CC6)ccc5[nH]4)c3)cn2)cc1 [Example 37, 1-(4-Methyl-benzyl)-1H-pyrazole-4-carboxylic acid {5-[5-(4-fluoro-piperidin-1-ylmethyl)-1H-indol-2-yl]-6-oxo-1,6-dihydro-pyridin-3-yl}-amide] | < 100 nM
2 | O=C(Nc1cnn(Cc2ccc(F)c(F)c2)c1)c1c[nH]c(=O)c(-c2cc3cc(CN4CCOCC4)ccc3[nH]2)c1 [Example 99, 5-(5-Morpholin-4-ylmethyl-1H-indol-2-yl)-6-oxo-1,6-dihydro-pyridine-3-carboxylic acid [1-(3,4-difluoro-benzyl)-1H-pyrazol-4-yl]-amide] | < 100 nM
3 | CC(c1ccccc1)n1cc(C(=O)Nc2c[nH]c(=O)c(-c3cc4ccccc4[nH]3)c2)cn1 (stereo not drawn) [Example 93, 1-(1-Phenylethyl)-1H-pyrazole-4-carboxylic acid [5-(1H-indol-2-yl)-6-oxo-1,6-dihydropyridin-3-yl]-amide] | < 100 nM
4 | O=C(Nc1cnn(Cc2ccc(F)c(F)c2)c1)c1c[nH]c(=O)c(-c2cc3cc(CN4CCC(O)CC4)ccc3[nH]2)c1 [Example 100, 5-[5-(4-Hydroxypiperidin-1-ylmethyl)-1H-indol-2yl]-6-oxo-1,6-dihydropyridine-3-carboxylic acid[1-(3,4-difluorobenzyl)-1H-pyrazol-4-yl]-amide] | < 100 nM
5 | O=C(Nc1c[nH]c(=O)c(-c2cc3cc(CN4CCC(F)CC4)ccc3[nH]2)c1)c1cnn(CCc2ccc(F)cc2)c1 [Example 96, 1-[2-(4-Fluoro-phenyl)-ethyl]-1H-pyrazole-4-carboxylic acid {5-[5-(4-fluoro-piperidin-1-ylmethyl)-1H-indol-2-yl]-6-oxo-1,6-dihydro-pyridin-3-yl}-amide] | < 100 nM
6 | O=C(Nc1cnn(Cc2ccccc2F)c1)c1c[nH]c(=O)c(-c2cc3ccccc3[nH]2)c1 [Example 8, 5-(1H-Indol-2-yl)-6-oxo-1,6-dihydro-pyridine-3-carboxylic acid [1-(2-fluoro-benzyl)-1H-pyrazol-4-yl]-amide] | 100 to 500 nM
7 | CN(C)CCOc1cccc2[nH]c(-c3cc(NC(=O)c4cnn(Cc5ccccc5)c4)c[nH]c3=O)cc12 [Example 159, 1-Benzyl-1H-pyrazole-4-carboxylic acid {5-[4-(2-dimethylamino-ethoxy)-1H-indol-2-yl]-6-oxo-1,6-dihydro-pyridin-3-yl}-amide] | < 100 nM
8 | Cc1ccc(Cn2cc(C(=O)Nc3c[nH]c(=O)c(-c4cc5cc(CN6CCN(C)CC6)ccc5[nH]4)c3)cn2)cc1 [Example 59, 1-(4-Methyl-benzyl)-1H-pyrazole-4-carboxylic acid {5-[5-(4-methyl-piperazin-1-ylmethyl)-1H-indol-2-yl]-6-oxo-1,6-dihydro-pyridin-3-yl}-amide] | < 100 nM
9 | C[C@@H](c1ccccc1)n1cc(C(=O)Nc2c[nH]c(=O)c(-c3cc4cc(CN5CCCCC5)ccc4[nH]3)c2)cn1 [Example 162, 1-((S)-1-Phenyl-ethyl)-1H-pyrazole-4carboxylic acid [6-oxo-5-(5-piperidin-1-ylmethyl-1H-indol-2-yl)-1,6-dihydro-pyridin-3-yl]-amide] | < 100 nM
10 | CC(C)c1ccc(Cn2cc(C(=O)Nc3c[nH]c(=O)c(-c4cc5cc(OCCCN(C)C)ccc5[nH]4)c3)cn2)cc1 [Example 157, 1-(4-Isopropylbenzyl)-1H-pyrazole-4-carboxylic acid {5-[5-(3-dimethylaminopropoxy)-1H-indol-2-yl)-6-oxo-1,6-dihydropyridin-3-yl}-amide] | < 100 nM
11 | O=C(Nc1c[nH]c(=O)c(-c2cc3ccccc3[nH]2)c1)c1cnn(Cc2ccc(F)nc2)c1 [Example 111, 1-(6-Fluoro-pyridin-3-ylmethyl)-1H-pyrazole-4-carboxylic acid [5-(1H-indol-2-yl)-6-oxo-1,6-dihydro-pyridin-3-yl]-amide] | < 100 nM
12 | Cc1ccc(Cn2cc(C(=O)Nc3c[nH]c(=O)c(-c4cc5cc(OCCCN6CCCCC6)ccc5[nH]4)c3)cn2)cc1 [Example 119, 1-(4-Methyl-benzyl)-1H-pyrazole-4-carboxylic acid {6-oxo-5-[5-(3-piperidin-1-yl-propoxy)-1H-indol-2-yl]-1,6-dihydro-pyridin-3-yl}-amide] | < 100 nM

Continued, values first:

Row | IC50 | Structure (SMILES)
13 | < 100 nM | Cc1ccc(Cn2cc(C(=O)Nc3c[nH]c(=O)c(-c4cc5cc(OCCN6CCN(C)CC6)ccc5[nH]4)c3)cn2)cc1 [Example 126, 1-(4-Methyl-benzyl)-1H-pyrazole-4-carboxylic acid (5-{5-[2-(4-methyl-piperazin-1-yl)-ethoxy]-1H-indol-2-yl}-6-oxo-1,6-dihydro-pyridin-3-yl)-amide]
14 | < 100 nM | CCc1cccc(Cn2cc(C(=O)Nc3c[nH]c(=O)c(-c4cc5cc(OCCN(C)C)ccc5[nH]4)c3)cn2)c1 [Example 128, 1-(3-Ethyl-benzyl)-1H-pyrazole-4-carboxylic acid {5-[5-(2-dimethylamino-ethoxy)-1H-indol-2-yl]-6-oxo-1,6-dihydro-pyridin-3-yl}-amide]
15 | < 100 nM | CC(C)(C)c1ccc(Cn2cc(C(=O)Nc3c[nH]c(=O)c(-c4cc5cc(OCCCN6CCCCC6)ccc5[nH]4)c3)cn2)cc1 [Example 153, 1-(4-tert-Butylbenzyl)-1H-pyrazole-4-carboxylic acid-{6-oxo-5-[5-(3-piperidin-1-ylpropoxy)-1H-indol-2-yl]-1,6-dihydropyridin-3-yl}-amide]
16 | < 100 nM | O=C(Nc1c[nH]c(=O)c(-c2cc3cc(OCCCN4CCCCC4)ccc3[nH]2)c1)c1cnn(Cc2ccccc2)c1 [Example 143, 1-Benzyl-1H-pyrazole-4-carboxylic acid {6-oxo-5-[5-(3-piperidin-1-yl-propoxy)-1H-indol-2-yl]-1,6-dihydro-pyridin-3-yl}-amide]
17 | < 100 nM | Cc1ccc(Cn2cc(C(=O)Nc3c[nH]c(=O)c(-c4cc5cc(OCCN6CCCC(F)C6)ccc5[nH]4)c3)cn2)cc1 (stereo not drawn) [Example 116, 1-(4-Methyl-benzyl)-1H-pyrazole-4-carboxylic acid (5-{5-[2-(3-fluoro-piperidin-1-yl)-ethoxy]-1H-indol-2-yl}-6-oxo-1,6-dihydro-pyridin-3-yl)-amide]
18 | < 100 nM | CC(C)(COc1ccc2[nH]c(-c3cc(NC(=O)c4cnn(Cc5ccccc5)c4)c[nH]c3=O)cc2c1)CN1CC[C@H](F)C1 [Example 183, 1-Benzyl-1H-pyrazole-4-carboxylic acid (5-{5-[3-((S)-3-fluoro-pyrrolidin-1-yl)-2,2-dimethyl-propoxyl]-1H-indol-2-yl}-6-oxo-1,6-dihydro-pyridin-3-yl)-amide]
19 | < 100 nM | CN1CCN(CCCOc2ccc3[nH]c(-c4cc(NC(=O)c5cnn(Cc6ccccc6)c5)c[nH]c4=O)cc3c2)CC1 [Example 140, 1-Benzyl-1H-pyrazole-4-carboxylic acid {5-[5-[3-(4-methyl-piperazin-1-yl)-propoxy]-1H-indol-2-yl}-6-oxo-1,6-dihydro-pyridin-3-yl)-amide]
20 | < 100 nM | Cc1cccc(Cn2cc(C(=O)Nc3c[nH]c(=O)c(-c4cc5ccccc5[nH]4)c3)cn2)c1 [Example 26, 1-(3-Methyl-benzyl)-1H-pyrazole-4-carboxylic acid [5-(1H-indol-2-yl)-6-oxo-1,6-dihydro-pyridin-3-yl]-amide]
21 | < 100 nM | O=C(Nc1c[nH]c(=O)c(-c2cc3cc(OCCN4CCCC4)ccc3[nH]2)c1)c1cnn(Cc2ccccc2)c1 [Example 144, 1-Benzyl-1H-pyrazole-4carboxylic acid {6-oxo-5-[5-(2-pyrrolidin-1-yl-ethoxy)-1H-indol-2-yl]-1,6-dihydro-pyridin-3-yl}-amide]
22 | < 100 nM | O=C(Nc1c[nH]c(=O)c(-c2cc3cc(CN4CCC(F)(F)CC4)ccc3[nH]2)c1)c1cnn(Cc2ccccc2)c1 [Example 64, 1-Benzyl-1H-pyrazole-4-carboxylic acid {5-[5-(4,4-difluoro-piperidin-1-ylmethyl)-1H-indol-2-yl]-6-oxo-1,6-dihydro-pyridin-3-yl}-amide]
23 | < 100 nM | COCCN(C)Cc1ccc2[nH]c(-c3cc(NC(=O)c4cnn(Cc5ccccc5)c4)c[nH]c3=O)cc2c1 [Example 79, 1-Benzyl-1H-pyrazole-4-carboxylic acid [5-(5-{1(2-methoxy-ethyl)-methyl-aminol-methyl}-1H-indol-2-yl)-6-oxo-1,6-dihydro-pyridin-3-yl]-amide]
24 | < 100 nM | CC(C)(COc1ccc2[nH]c(-c3cc(NC(=O)c4cnn(Cc5ccccc5)c4)c[nH]c3=O)cc2c1)CN1CCC(F)(F)C1 [Example 181, 1-Benzyl-1H-pyrazole-4-carboxylic acid (5-{5-[3-(3,3-difluoro-pyrrolidin-1-yl)-2,2-dimethyl-propoxy]-1H-indol-2-yl}-6-oxo-1,6-dihydro-pyridin-3-yl)-amide]
